Patent US12564590B2, “Combinations of menin inhibitors and CYP3A4 inhibitors and methods of use thereof” (Syndax Pharmaceuticals, Inc., priority 2020, dated 2026)

Key:
[1] = test system: NPM1c mutant AML patient-derived xenograft models; conditions: orally active; cited from earlier work
[2] = molecular target: T1, MLL1 binding pocket on menin (Homo sapiens, UniProt O00255); assay: binding to the MLL1 binding pocket on menin
T1 sequence (O00255 1-610): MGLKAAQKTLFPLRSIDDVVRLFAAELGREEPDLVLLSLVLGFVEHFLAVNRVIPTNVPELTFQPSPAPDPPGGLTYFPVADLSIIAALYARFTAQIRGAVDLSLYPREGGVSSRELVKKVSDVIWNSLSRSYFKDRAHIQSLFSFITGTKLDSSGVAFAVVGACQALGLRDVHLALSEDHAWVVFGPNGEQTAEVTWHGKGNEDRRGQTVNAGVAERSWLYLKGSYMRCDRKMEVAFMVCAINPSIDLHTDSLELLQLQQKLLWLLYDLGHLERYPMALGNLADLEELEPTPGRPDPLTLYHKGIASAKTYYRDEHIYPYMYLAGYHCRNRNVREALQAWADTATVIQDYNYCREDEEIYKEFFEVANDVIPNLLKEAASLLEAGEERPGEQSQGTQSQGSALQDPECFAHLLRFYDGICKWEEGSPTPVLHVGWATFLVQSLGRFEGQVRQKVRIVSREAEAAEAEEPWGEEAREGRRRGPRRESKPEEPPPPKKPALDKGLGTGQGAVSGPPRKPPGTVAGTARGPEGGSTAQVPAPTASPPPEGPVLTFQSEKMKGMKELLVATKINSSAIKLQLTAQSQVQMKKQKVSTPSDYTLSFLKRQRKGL

[3] = test system: cells harboring MLLr fusions; assay: activity in cells harboring MLLr fusions; assay type: cell-based
[4] = test system: leukemic xenograft models; assay: leukemic xenograft / nonclinical survival models; assay type: in vivo; conditions: in combination with a CYP3A4 inhibitor; for survival benefit in nonclinical models: oral dosing
NPM1c cells = conditions: leading to growth arrest, terminal differentiation and cell death; cited from earlier work

SMILES	anti-leukemic activity [1]	binding affinity to the MLL1 binding pocket on menin [2]	activity across a range of cells harboring MLLr fusions [3]	activity in multiple leukemic xenograft models [4]	survival benefit in nonclinical models [4]	effect on HOXA MEIS1 transcription program (NPM1c cells)
CNc1nc(NC2CCN(Cc3ccc4c(cc(C#N)n4C[C@H](C)N4CCN(S(C)(=O)=O)CC4)c3C)CC2)c2cc(CC(F)(F)F)sc2n1 [KO-539]	robust anti-leukemic activity					
CC(C)N(C(=O)c1cc(F)ccc1Oc1cncnc1N1CC2(CCN(C[C@H]3CC[C@H](NS(C)(=O)=O)CC3)CC2)C1)C(C)C [Formula I, 5-fluoro-N,N-diisopropyl-2-((4-(7-(((1r,4r)-4-(methylsulfonamido)cyclohexyl)methyl)-2,7-diazaspiro[3.5]nonan-2-yl)pyrimidin-5-yl)oxy)benzamide]		high affinity	displays activity	robust activity	profound survival benefit	
CCN(C(=O)c1cc(F)ccc1Oc1cncnc1N1CC2(CCN(C[C@H]3CC[C@H](NS(=O)(=O)CC)CC3)CC2)C1)C(C)C [Formula II, N-ethyl-2-((4-(7-(((1r,4r)-4-(ethylsulfonamido)cyclohexyl)methyl)-2,7-diazaspiro[3.5]nonan-2-yl)pyrimidin-5-yl)oxy)-5-fluoro-N-isopropylbenzamide]		high affinity	displays activity	robust activity	profound survival benefit	
Cc1c(CN2CCC(Nc3ncnc4sc(CC(F)(F)F)cc34)CC2)ccc2c1cc(C#N)n2Cc1cn[nH]c1 [MI-503]						suppress the HOXA MEIS1 transcription program
